Assay [1] concerns the target T1, Dual specificity tyrosine-phosphorylation-regulated kinase 1A (Homo sapiens, UniProt Q13627). Kind of assay: Inhibition of DYRK1A (unknown origin).
The target in assay [2] is T1, Dual specificity tyrosine-phosphorylation-regulated kinase 1A. Kind of assay: Inhibition of DYRK1A (unknown origin) at 10 uM relative to control.
Assay [3] can be described thus: Inhibition of CLK (unknown origin). Further details: species or system Homo sapiens.
In assay [4] the target is Glycogen synthase kinase-3 (Homo sapiens, UniProt P49840+P49841). Briefly: Inhibition of GSK-3 (unknown origin). The format is protein assay.
For assay [5], the target named is T2, Dual specificity tyrosine-phosphorylation-regulated kinase 1B (Homo sapiens, UniProt Q9Y463). Briefly: Inhibition of DYRK1B (unknown origin).
The target in assay [6] is T3, MAP kinase-activated protein kinase 5 (Homo sapiens, UniProt Q8IW41).
T3 sequence (Q8IW41 whole entry): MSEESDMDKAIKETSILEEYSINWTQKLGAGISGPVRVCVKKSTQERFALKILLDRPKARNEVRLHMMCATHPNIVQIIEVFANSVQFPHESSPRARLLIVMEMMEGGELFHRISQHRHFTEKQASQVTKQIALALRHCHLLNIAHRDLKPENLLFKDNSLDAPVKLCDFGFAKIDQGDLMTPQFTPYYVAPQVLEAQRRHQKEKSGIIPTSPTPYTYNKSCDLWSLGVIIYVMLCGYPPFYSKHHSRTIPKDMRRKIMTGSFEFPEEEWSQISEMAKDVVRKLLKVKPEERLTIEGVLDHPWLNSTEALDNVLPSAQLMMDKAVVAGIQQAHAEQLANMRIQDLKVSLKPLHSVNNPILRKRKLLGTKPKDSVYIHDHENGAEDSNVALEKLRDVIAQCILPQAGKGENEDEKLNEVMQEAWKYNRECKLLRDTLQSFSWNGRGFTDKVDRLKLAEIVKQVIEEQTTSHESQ
Kind of assay: Inhibition of PRAK (unknown origin).

Assay [7] has as its target Dual specificity protein kinase CLK1 (Homo sapiens, UniProt P49759). Kind of assay: Inhibition of CLK1 (unknown origin).
The target in assay [8] is Dual specificity protein kinase CLK2 (Homo sapiens, UniProt P49760). Kind of assay: Inhibition of CLK2 (unknown origin).
The target of assay [9] is T4, Dual specificity tyrosine-phosphorylation-regulated kinase 2 (Homo sapiens, UniProt Q92630).
T4 sequence (Q92630 whole entry): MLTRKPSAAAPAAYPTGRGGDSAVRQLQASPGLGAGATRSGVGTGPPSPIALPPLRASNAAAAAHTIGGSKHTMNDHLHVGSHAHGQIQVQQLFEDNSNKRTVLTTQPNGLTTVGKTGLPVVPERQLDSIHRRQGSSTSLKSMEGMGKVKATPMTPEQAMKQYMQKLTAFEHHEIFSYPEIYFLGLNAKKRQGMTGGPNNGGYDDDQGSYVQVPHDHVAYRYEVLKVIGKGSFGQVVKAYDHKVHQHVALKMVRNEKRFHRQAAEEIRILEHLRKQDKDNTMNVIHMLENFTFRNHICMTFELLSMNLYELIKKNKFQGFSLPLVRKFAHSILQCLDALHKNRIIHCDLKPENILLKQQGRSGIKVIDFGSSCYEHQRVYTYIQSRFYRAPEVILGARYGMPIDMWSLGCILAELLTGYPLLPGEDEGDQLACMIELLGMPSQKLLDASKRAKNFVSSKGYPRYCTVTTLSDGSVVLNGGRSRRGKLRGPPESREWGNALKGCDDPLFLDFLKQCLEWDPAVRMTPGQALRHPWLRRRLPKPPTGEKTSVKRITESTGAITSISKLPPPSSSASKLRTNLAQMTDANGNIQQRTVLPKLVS
Briefly: Inhibition of DYRK2 (unknown origin).

Another assay concerns SW-620. Kind of assay: cells. To be noted: Homo sapiens, SW-620, 96 h.
The target of assay [10] is T1, Dual specificity tyrosine-phosphorylation-regulated kinase 1A. Kind of assay: Inhibition of human recombinant full length GST-tagged DYRK1A expressed in baculovirus expression system assessed as decrease in tau phosphorylation at S396 preincubated for 10 mins followed by tau addition by Western blot analysis. In general terms: In western blotting, separated proteins are transferred to a membrane and probed.

Assay [11] addresses Aurora kinase B (Homo sapiens) (UniProt Q96GD4). Kind of assay: Inhibition of aurora B (unknown origin) at 50 uM.
The target of assay [12] is T5, MAP kinase-activated protein kinase 5 (Homo sapiens) (UniProt Q8IW41).
T5 sequence (whole entry): T3 sequence (Q8IW41 whole entry)
Briefly: Inhibition of PRAK (unknown origin) at 50 uM.

Assay [13] addresses T1, Dual specificity tyrosine-phosphorylation-regulated kinase 1A. Kind of assay: Inhibition of DYRK1A (unknown origin) at 50 uM.
The target is the same in assay [14]. Briefly: Inhibition of GST-tagged DYRK1A (unknown origin) expressed in Escherichia coli DH5alpha at 1 uM using RRRFRPASPLRGPPK as substrate after 30 mins by kinase-glo luminescence assay relative to control. On the technique in general: In Kinase-Glo more light means more ATP remaining.
Assay [15] has the same target. Briefly: Inhibition of GST-tagged DYRK1A (unknown origin) expressed in Escherichia coli DH5alpha using RRRFRPASPLRGPPK as substrate after 30 mins by kinase-glo luminescence assay.
In assay [16] the target is Cyclin-dependent kinase 9 (Homo sapiens, UniProt P50750). Briefly: Inhibition of human full-length N-terminal GST-fused CDK9 (1 to 372 residues) expressed in baculovirus expression system using MBP as substrate after 100 mins by TR-FRET assay. On the technique in general: In TR-FRET formats the signal depends on donor and acceptor labels being close together.
Assay [17] deals with T6, Dual specificity tyrosine-phosphorylation-regulated kinase 1A (Rattus norvegicus, UniProt Q63470). Kind of assay: Inhibition of rat recombinant GST-fused DYRK1A expressed in Escherichia coli in presence of [gamma-33P]ATP after 30 mins by scintillation counting analysis.
The target in a further assay is Casein kinase 2 (Rattus norvegicus, UniProt P19139). Briefly: Inhibition of rat liver CK2 using RRRADDSDDDDD as substrate after 10 mins in presence of [gamma-33P]ATP.
Assay [18] addresses T1, Dual specificity tyrosine-phosphorylation-regulated kinase 1A. Kind of assay: Inhibition of DYRK1A (unknown origin) by cell-based assay.
Assay [19] concerns the target T6, Dual specificity tyrosine-phosphorylation-regulated kinase 1A. Kind of assay: Inhibition of rat DYRK1A using KKISGRLSPIMTEQ as substrate in presence of [gamma-33P]ATP after 30 mins by scintillation counting analysis.
The target of assay [20] is T7, Amine oxidase [flavin-containing] A (Homo sapiens, UniProt P21397).
T7 sequence (P21397 whole entry): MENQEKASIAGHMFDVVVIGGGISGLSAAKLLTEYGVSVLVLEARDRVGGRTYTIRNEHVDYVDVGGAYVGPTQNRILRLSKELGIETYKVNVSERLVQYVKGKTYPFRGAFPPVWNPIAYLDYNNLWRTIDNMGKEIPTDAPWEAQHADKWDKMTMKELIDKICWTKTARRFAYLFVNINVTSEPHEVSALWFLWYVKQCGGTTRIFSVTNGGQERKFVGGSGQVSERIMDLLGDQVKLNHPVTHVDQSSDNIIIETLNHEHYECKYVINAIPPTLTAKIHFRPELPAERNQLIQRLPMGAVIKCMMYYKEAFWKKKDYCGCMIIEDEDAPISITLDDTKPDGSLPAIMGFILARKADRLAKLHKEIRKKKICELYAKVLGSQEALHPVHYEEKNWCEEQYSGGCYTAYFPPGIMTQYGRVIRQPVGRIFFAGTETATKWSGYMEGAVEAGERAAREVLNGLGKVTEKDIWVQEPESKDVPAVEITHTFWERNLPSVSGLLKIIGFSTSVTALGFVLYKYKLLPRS
Briefly: Inhibition of human recombinant MAO-A after 1 hr by MAO-Glo assay.

Assay [21] addresses T2, Dual specificity tyrosine-phosphorylation-regulated kinase 1B. Kind of assay: Inhibition of human recombinant full length N-terminal GST-tagged DYRK1B expressed in baculovirus expression system using DYRKtide-F as substrate after 1 hr by electrophoretic analysis.

Structures are written as SMILES.

As usually defined, the IC50 is the concentration needed to halve the response being measured. For orientation: inhibition means the share of the control response that was lost under treatment. Low values mean a response near the control, high ones a response far below the control. What is called EC50 is the midpoint of the concentration-response curve. Low values mean an effect from little substance, high ones a need for much substance.

Chain of Casein kinase 2 (P67874 whole entry): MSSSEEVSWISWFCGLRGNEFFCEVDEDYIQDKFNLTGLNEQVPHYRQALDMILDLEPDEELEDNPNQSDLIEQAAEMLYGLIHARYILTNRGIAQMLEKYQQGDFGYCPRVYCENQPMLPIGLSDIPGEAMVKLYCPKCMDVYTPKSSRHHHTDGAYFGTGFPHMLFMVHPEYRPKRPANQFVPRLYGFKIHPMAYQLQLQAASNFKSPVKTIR
Chain of Casein kinase 2 (P19139 whole entry): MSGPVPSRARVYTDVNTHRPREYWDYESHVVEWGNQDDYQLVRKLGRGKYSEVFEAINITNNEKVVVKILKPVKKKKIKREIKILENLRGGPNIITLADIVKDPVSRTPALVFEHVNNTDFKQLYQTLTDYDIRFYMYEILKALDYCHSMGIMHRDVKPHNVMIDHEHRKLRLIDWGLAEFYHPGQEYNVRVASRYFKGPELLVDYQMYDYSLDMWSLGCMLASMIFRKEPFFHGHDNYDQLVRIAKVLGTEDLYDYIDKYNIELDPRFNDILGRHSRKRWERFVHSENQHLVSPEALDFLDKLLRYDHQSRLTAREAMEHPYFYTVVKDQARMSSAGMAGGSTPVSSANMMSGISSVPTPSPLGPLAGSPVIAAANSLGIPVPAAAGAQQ
T2 sequence (Q9Y463 whole entry): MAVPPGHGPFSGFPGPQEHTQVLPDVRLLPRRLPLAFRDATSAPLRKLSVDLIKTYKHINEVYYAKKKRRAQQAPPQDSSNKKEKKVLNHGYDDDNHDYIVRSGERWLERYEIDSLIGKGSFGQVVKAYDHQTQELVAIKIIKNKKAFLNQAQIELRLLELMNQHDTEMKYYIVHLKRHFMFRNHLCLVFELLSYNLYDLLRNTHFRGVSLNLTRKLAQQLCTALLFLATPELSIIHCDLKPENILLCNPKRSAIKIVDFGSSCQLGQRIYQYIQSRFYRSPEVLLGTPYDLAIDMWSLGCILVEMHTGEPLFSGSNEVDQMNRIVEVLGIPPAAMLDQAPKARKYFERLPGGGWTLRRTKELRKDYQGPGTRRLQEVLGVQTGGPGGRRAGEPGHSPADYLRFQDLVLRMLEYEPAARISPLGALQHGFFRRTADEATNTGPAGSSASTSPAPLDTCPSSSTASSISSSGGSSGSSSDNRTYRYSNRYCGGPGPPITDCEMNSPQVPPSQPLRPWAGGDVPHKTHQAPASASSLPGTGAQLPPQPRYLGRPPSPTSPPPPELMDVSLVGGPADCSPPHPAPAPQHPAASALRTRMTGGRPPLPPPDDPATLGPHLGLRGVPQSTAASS
Chain of Dual specificity protein kinase CLK2 (P49760 whole entry): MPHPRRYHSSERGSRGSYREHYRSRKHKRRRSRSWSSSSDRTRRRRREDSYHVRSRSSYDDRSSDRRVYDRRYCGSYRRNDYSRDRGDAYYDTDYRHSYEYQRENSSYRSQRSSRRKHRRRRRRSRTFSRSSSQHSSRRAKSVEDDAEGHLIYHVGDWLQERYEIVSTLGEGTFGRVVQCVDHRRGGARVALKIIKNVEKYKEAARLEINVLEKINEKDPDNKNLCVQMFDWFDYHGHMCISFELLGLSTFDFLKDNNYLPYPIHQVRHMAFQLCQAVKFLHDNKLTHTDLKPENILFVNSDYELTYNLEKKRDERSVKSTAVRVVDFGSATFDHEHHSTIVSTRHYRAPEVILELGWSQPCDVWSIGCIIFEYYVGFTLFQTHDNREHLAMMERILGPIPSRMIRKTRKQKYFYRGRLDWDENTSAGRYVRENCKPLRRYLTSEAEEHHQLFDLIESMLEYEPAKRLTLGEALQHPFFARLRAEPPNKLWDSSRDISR
Chain of Cyclin-dependent kinase 9 (P50750 whole entry, the tested form may be a part): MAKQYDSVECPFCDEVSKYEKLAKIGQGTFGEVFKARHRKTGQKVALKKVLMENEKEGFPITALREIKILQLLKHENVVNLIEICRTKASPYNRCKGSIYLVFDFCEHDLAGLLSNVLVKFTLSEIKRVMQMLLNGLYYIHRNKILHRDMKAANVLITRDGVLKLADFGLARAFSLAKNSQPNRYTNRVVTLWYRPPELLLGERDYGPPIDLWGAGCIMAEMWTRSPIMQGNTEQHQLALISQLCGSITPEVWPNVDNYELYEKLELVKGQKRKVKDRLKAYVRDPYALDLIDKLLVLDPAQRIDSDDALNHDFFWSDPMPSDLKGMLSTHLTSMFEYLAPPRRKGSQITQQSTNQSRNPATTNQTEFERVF
Chain of Dual specificity protein kinase CLK1 (P49759 whole entry): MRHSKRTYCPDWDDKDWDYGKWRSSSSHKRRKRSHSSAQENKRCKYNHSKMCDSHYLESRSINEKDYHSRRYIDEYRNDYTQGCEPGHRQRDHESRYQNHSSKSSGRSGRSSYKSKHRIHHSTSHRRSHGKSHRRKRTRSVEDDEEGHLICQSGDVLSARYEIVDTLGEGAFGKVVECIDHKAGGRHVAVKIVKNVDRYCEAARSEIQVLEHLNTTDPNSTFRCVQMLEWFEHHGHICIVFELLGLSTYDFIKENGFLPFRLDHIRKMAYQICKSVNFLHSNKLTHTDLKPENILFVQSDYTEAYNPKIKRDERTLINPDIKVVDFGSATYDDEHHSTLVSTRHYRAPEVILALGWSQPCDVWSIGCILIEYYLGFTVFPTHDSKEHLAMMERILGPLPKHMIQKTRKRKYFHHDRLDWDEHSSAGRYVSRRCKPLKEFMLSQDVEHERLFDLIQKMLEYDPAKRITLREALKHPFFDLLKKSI
Chain of Aurora kinase B (Homo sapiens) (Q96GD4 whole entry): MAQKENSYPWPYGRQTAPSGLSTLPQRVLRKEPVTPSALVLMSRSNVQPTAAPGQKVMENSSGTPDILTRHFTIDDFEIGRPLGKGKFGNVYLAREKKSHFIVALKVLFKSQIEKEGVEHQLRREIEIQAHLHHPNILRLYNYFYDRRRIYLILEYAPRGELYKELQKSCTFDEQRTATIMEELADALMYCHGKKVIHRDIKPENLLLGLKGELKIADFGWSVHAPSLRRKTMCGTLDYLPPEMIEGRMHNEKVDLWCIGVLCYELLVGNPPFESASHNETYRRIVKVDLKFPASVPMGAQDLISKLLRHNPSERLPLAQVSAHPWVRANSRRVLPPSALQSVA

In turn, `Brc1c(Br)c(Br)c2[nH]cnc2c1Br` registered an IC50 in assay [1] of 2100 nM. In [2], `COC(=O)c1ccc(-n2cnc3ccc(-c4ccncc4)cc32)cc1` gave an inhibition of 60 to 100%.

For `O=C1NC(Nc2ccccc2)=N/C1=C/c1ccc2c(c1)OCO2`, the IC50 in assay [3] was 60 to 70 nM; in assay [4], 410 nM. `N#Cc1ccc(-n2cnc3ccc(-c4ccncc4)cc32)cc1` gave an inhibition in assay [2] of 60 to 100%. Still for that read-out and setting: for `c1cc(-c2ccc3ncn(-c4ccc5[nH]cnc5c4)c3c2)ccn1` the value was 60 to 100%. As for `COc1ccc(-n2cnc3ccc(-c4ccncc4)cc32)cc1`, the inhibition in assay [2] was 60 to 100%. On the same count and under the same terms, for `CS(=O)(=O)c1ccc(-n2cnc3ccc(-c4ccncc4)cc32)cc1` the value was 60 to 100%. Regarding `CN(C)c1nc2c(Br)c(Br)c(Br)c(Br)c2[nH]1`, the midpoint of inhibition in assay [1], the IC50, lay at 400 nM.

`COc1cc(-c2cc(=O)c3c(O)cc(O)c(C/C=C(\C)CCC=C(C)C)c3o2)ccc1O`: the values for the half-inhibitory concentration (IC50) in assay [5] and in assay [1] were 6400 nM and 620 nM, respectively. In [6], `O=C(O[C@@H]1Cc2c(O)cc(O)cc2O[C@@H]1c1cc(O)c(O)c(O)c1)c1cc(O)c(O)c(O)c1` [EPIGALOCATECHIN GALLATE] registered an IC50 of 1000 nM. Turning to `CN1C(=O)/C(=C\c2ccc3c(c2)OCO3)N=C1N`, the IC50 in assay [7] came to 100 nM; in [8] it was 910 nM; in [9], 490 nM. `COc1cc2[nH]c(=O)c(C(=O)Nc3cc(C(=O)NCc4cccc(Cl)c4)ccc3C)cc2cc1CCCN1CCOCC1` displayed an EC50 in the assay with SW-620 of 306 nM. As for `Cc1nccc2c1[nH]c1cc(O)ccc12`, the IC50 in assay [10] turned out to be 90 nM. As for `COc1ccc(/C=C/C(=O)c2c(O)cc(OC)cc2OC)cc1`, the inhibition worked out at 84% in [11], 91% in assay [12] and 90% in [13]. Turning to `COc1ccc2c3ccnc(C)c3n(CC#N)c2c1`, the inhibition in [14] came out at 92%. In [15], this molecule showed an IC50 of 81 nM. Molecule `CCOc1ccccc1CNc1nc(C)nc2[nH]cc(-c3ccnc(N)c3)c12` gave an IC50 in assay [16] of 10 nM. Consider `CC[C@H](CO)Nc1nc(NCc2ccccc2)n2ncc(C(C)C)c2n1`, for which the IC50 in assay [17] is 1300 nM. On to `NC(=O)c1ccc(-n2cnc3ccc(-c4ccncc4)cc32)cc1`, for which the inhibition in assay [2] was in the range of 60 to 100%. Still for that read-out and setting: for `O=C(O)c1ccc(-n2cnc3ccc(-c4ccncc4)cc32)cc1` the value was 60 to 100%.

In [14], `COc1ccc2c(c1)[nH]c1c(C)nccc12` returned an inhibition of over 60%. Turning to `Cc1cc(=O)oc2cc3c([N+](=O)[O-])c(O)ccc3cc12`, the IC50 at Casein kinase 2 was 370 nM. As to `CC(C)[C@H](CO)Nc1nc(Nc2cccc(Cl)c2)c2ncn(C(C)C)c2n1` [PURVALANOLA], in assay [18], the IC50 worked out at 300 nM.

Take `O=c1[nH]c(NCCO)nc2ccc3[nH]ncc3c12`: the IC50 in [19] stood at 610 nM. For `Cc1cc(=O)oc2cc3cc(O)ccc3cc12`, the IC50 on Casein kinase 2 came out at 32300 nM. `COc1ccc2c3ccnc(Cl)c3n(CC#N)c2c1`: the IC50 in assay [20] is over 10000 nM. The inhibition in [14] is 90%. As for `N=C1NC(=O)/C(=C/c2ccc3c(c2)CCO3)S1`, in [21], the IC50 worked out at 24.1 nM.

The values are drawn from ChEMBL document CHEMBL4265878, “Dual-Specificity Tyrosine Phosphorylation-Regulated Kinase 1A (DYRK1A) Inhibitors as Potential Therapeutics” (J Med Chem, 2018).
